Test results: patent US20240425523A1, “Compounds for the Degradation of EGFR Kinase” (Beigene Switzerland GMBH, priority 2023, published 2024)

How the values were obtained:
Format in all cases: cell-based
[1] = target: p-EGFR Del19/C797S (H1975-clone #23 cells) (Homo sapiens, UniProt P00533); assay: Cell p-EGFR inhibition assay, HTRF, H1975-clone#23 (DEL19/C797S) cells; settings: 16 h treatment; for Imax (%): maximum percentage of pEGFR inhibition; for IC50: pEGFR inhibition
How it was run: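 Phospho-EGFR read by overnight HTRF on lysates, normalized to DMSO-treated high control; IC50, Hill slope and Imax fitted. Compounds were applied for 16 h (10 uM top, 5-fold steps, 8 doses) to an H1975 single clone carrying only exogenous Del19/C797S EGFR after sgRNA knockout of endogenous copies.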

[2] = target: T1, p-EGFR L858R (BaF3-L858R cells) (Homo sapiens, UniProt P00533, L858R); assay: Cell p-EGFR inhibition assay, HTRF, BaF3-L858R cells; settings: 16 h treatment; for Imax (%): maximum percentage of pEGFR inhibition; for IC50: pEGFR inhibition
T1 construct: host or cells: BaF3
How it was run: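 BaF3-L858R cells treated 16 h at 37 °C, 5% CO2 with compound from 10 uM top, 5-fold dilutions, 8 doses, in 0.1% DMSO medium. Lysates read overnight by HTRF p-EGFR antibodies; IC50 fitted to four-parameter curve against DMSO high control.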

[3] = target: T2, EGFR L858R (BaF3-L858R cells) (Homo sapiens, UniProt P00533, L858R); assay: Cell degradation of EGFR, HTRF assay, BaF3-L858R cells; settings: 16 h treatment; for DC50: EGFR degradation; for Dmax: maximum percentage of degradation
T2 construct: host or cells: BaF3
How it was run: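 BaF3-L858R cells treated 16 h at 37° C, 5% CO2 with compound (top 10 uM final, 5-fold, 8 doses, 0.1% DMSO). DC50 from four-parameter fit; Dmax is maximum percent degradation.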

[4] = target: T3, EGFR-L858R/C797S (H1975-clone #8 cells) (Homo sapiens, UniProt P00533, C797S/L858R); assay: Cell degradation of EGFR, HTRF assay, H1975-clone#8 (L858R/C797S) cells; settings: 16 h treatment; for DC50: EGFR degradation; for Dmax: maximum percentage of degradation
T3 construct: expressed in transfected cells; host or cells: H1975 (endogenous EGFR knocked out, clone #8)

Row | Imax (%) [1] [%] | IC50 [1] [nM] | Imax (%) [2] [%] | IC50 [2] [nM] | DC50 [3] [nM] | Dmax [3] [%] | DC50 [4] [nM] | Dmax [4] [%] | Structure (SMILES)
1 | 100.7 | 1 | 96.5 | 18 | 4.08 | 69.1 | 5.64 | 81.8 | Cc1cc2cc(n1)-c1cnn(C)c1OC[C@H]1CCC(C1)CN1/C(=N/C2=O)Nc2ccc(N3CCN([C@H]4CCN(c5ccc(C6CCC(=O)NC6=O)nc5C)CC4(F)F)CC3)cc21 (stereo partly drawn) [Example 83, 3-(5-((S)-4-(4-((7^1R,7^3S,E)-1^1,2^6-dimethyl-3-oxo-5^2,5^3-dihydro-1^1H,5^1H-9-oxa-4-aza-5(2,1)-benzo[d]imidazola-2(2,4)-pyridina-1(4,5)-pyrazola-7(1,3)-cyclopentanacyclononaphane-5^6-yl)piperazin-1-yl)-3,3-difluoropiperidin-1-yl)-6-methylpyridin-2-yl)piperidine-2,6-dione]
2 | 100 | 0.6 | 97.1 | 14.9 | 1.11 | 78 | 0.92 | 80.6 | Cc1cc2cc(n1)-c1cnn(C)c1OC[C@H]1CCC(C1)CN1/C(=N/C2=O)Nc2ccc(N3CC4(C3)CN(C3CCN(c5cc(F)c([C@H]6CCC(=O)NC6=O)c(F)c5)CC3)C4)cc21 [Example 117, (R)-3-(4-(4-(6-((7^1R,7^3S,E)-1^1,2^6-dimethyl-3-oxo-5^2,5^3-dihydro-1^1H,5^1H-9-oxa-4-aza-5(2,1)-benzo[d]imidazola-2(2,4)-pyridina-1(4,5)-pyrazola-7(1,3)-cyclopentanacyclononaphane-5^6-yl)-2,6-diazaspiro[3.3]heptan-2-yl)piperidin-1-yl)-2,6-difluorophenyl)piperidine-2,6-dione]
3 | 99.8 | 1.1 | 99.7 | 6.4 | 3.63 | 84.6 | 3.3 | 80.2 | COC[C@H]1CN(c2ccc3c(c2)N2CC4CC[C@H](COc5c(cnn5C)-c5cc(cc(C)n5)C(=O)/N=C/2N3)C4)CCN1C1CCN(c2cc(F)c(C3CCC(=O)NC3=O)nc2C)CC1 (stereo partly drawn) [Example 71, 3-(5-(4-((R)-4-((7^1R,7^3S,E)-1^1,2^6-dimethyl-3-oxo-5^2,5^3-dihydro-1^1H,5^1H-9-oxa-4-aza-5(2,1)-benzo[d]imidazola-2(2,4)-pyridina-1(4,5)-pyrazola-7(1,3)-cyclopentanacyclononaphane-5^6-yl)-2-(methoxymethyl)piperazin-1-yl)piperidin-1-yl)-3-fluoro-6-methylpyridin-2-yl)piperidine-2,6-dione]
4 | 102.91 | 2.92 | 99.05 | < 0.128 | 6.02 | 82.5 | 2.28 | 91.8 | Cc1cc2cc(n1)-c1c(C)nn(C)c1OC[C@H]1CC[C@H](C1)CN1/C(=N/C2=O)Nc2ccc(N3CCN(CC4CN(c5cc(F)c([C@H]6CCC(=O)NC6=O)c(F)c5)C4)CC3)cc21 [Example 199, (R)-3-(2,6-difluoro-4-(3-((4-((7^1R,7^3S,E)-1^1,1^3,2^6-trimethyl-3-oxo-5^2,5^3-dihydro-1^1H,5^1H-9-oxa-4-aza-5(2,1)-benzo[d]imidazola-2(2,4)-pyridina-1(4,5)-pyrazola-7(1,3)-cyclopentanacyclononaphane-5^6-yl)piperazin-1-yl)methyl)azetidin-1-yl)phenyl)piperidine-2,6-dione]
5 | 100.5 | 0.4 | 98.4 | 7.3 | 3.11 | 75.7 | 1.09 | 82 | Cc1cc2cc(n1)-c1cnn(C)c1OC[C@H]1CCC(C1)CN1/C(=N/C2=O)Nc2ccc(N3CCN(C4(CO)CCN(c5ccc(C6CCC(=O)NC6=O)nc5C)CC4)CC3)cc21 (some centres unmarked) [Example 114, 3-(5-(4-(4-((7^1R,7^3S,E)-1^1,2^6-dimethyl-3-oxo-5^2,5^3-dihydro-1^1H,5^1H-9-oxa-4-aza-5(2,1)-benzo[d]imidazola-2(2,4)-pyridina-1(4,5)-pyrazola-7(1,3)-cyclopentanacyclononaphane-5^6-yl)piperazin-1-yl)-4-(hydroxymethyl)piperidin-1-yl)-6-methylpyridin-2-yl)piperidine-2,6-dione]
6 | 98.9 | 0.5 | 96.8 | 11 | 4.53 | 70.7 | 3.24 | 52.2 | Cc1cc2cc(n1)-c1cnn(CCO)c1OC[C@H]1CCC(C1)CN1/C(=N/C2=O)Nc2ccc(N3CCN(C4CCN(c5cc(F)c([C@H]6CCC(=O)NC6=O)c(F)c5)CC4)CC3)cc21 [Example 122, (R)-3-(2,6-difluoro-4-(4-(4-((7^1R,7^3S,E)-1^1-(2-hydroxyethyl)-2^6-methyl-3-oxo-5^2,5^3-dihydro-1^1H,5^1H-9-oxa-4-aza-5(2,1)-benzo[d]imidazola-2(2,4)-pyridina-1(4,5)-pyrazola-7(1,3)-cyclopentanacyclononaphane-5^6-yl)piperazin-1-yl)piperidin-1-yl)phenyl)piperidine-2,6-dione]
7 | 100.78 | 0.97 | 98.7 | 5.5 | 3.1 | 73.6 | 0.938 | 84.8 | Cc1cc2cc(n1)-c1c(C)nn(C)c1OC[C@H]1CC[C@H](C1)CN1/C(=N/C2=O)Nc2ccc(N3CCN([C@@H]4CCN(c5ccc(OC6CCC(=O)NC6=O)cc5)C[C@@H]4F)CC3)cc21 (stereo partly drawn) [Example 144, 3-(4-((3S,4R)-3-fluoro-4-(4-((7^1R,7^3S,E)-1^1,1^3,2^6-trimethyl-3-oxo-5^2,5^3-dihydro-1^1H,5^1H-9-oxa-4-aza-5(2,1)-benzo[d]imidazola-2(2,4)-pyridina-1(4,5)-pyrazola-7(1,3)-cyclopentanacyclononaphane-5^6-yl)piperazin-1-yl)piperidin-1-yl)phenoxy)piperidine-2,6-dione]
8 | 99.79 | 1.95 | 90.67 | < 0.128 | 4.2 | 93.2 | 3.78 | 84.9 | CC[C@@H]1CN(c2ccc3c(c2)N2C[C@@H]4CC[C@H](COc5c(c(C)nn5C)-c5cc(cc(C)n5)C(=O)/N=C/2N3)C4)CCN1C1CCN(c2cc(F)c([C@H]3CCC(=O)NC3=O)c(F)c2)CC1 [Example 188, (R)-3-(4-(4-((R)-2-ethyl-4-((7^1R,7^3S,E)-1^1,1^3,2^6-trimethyl-3-oxo-5^2,5^3-dihydro-1^1H,5^1H-9-oxa-4-aza-5(2,1)-benzo[d]imidazola-2(2,4)-pyridina-1(4,5)-pyrazola-7(1,3)-cyclopentanacyclononaphane-5^6-yl)piperazin-1-yl)piperidin-1-yl)-2,6-difluorophenyl)piperidine-2,6-dione]
9 | 95.87 | 0.59 | 94.19 | 3.02 | 3.08 | 76.5 | 3.01 | 88.2 | COCCn1nc(C)c2c1OC[C@H]1CC[C@H](C1)CN1/C(=N/C(=O)c3cc(C)nc-2c3)Nc2ccc(N3CCN(C4CCN(c5cc(F)c([C@H]6CCC(=O)NC6=O)c(F)c5)CC4)[C@@H](COC)C3)cc21 [Example 160, (R)-3-(2,6-difluoro-4-(4-((R)-4-((7^1R,7^3S,E)-1^1-(2-methoxyethyl)-1^3,2^6-dimethyl-3-oxo-5^2,5^3-dihydro-1^1H,5^1H-9-oxa-4-aza-5(2,1)-benzo[d]imidazola-2(2,4)-pyridina-1(4,5)-pyrazola-7(1,3)-cyclopentanacyclononaphane-5^6-yl)-2-(methoxymethyl)piperazin-1-yl)piperidin-1-yl)phenyl)piperidine-2,6-dione]
10 | 99.7 | 3.1 | 97.5 | 11.6 | 4.23 | 78 | 4.91 | 83 | COC[C@@H]1CN(c2ccc3c(c2)N2CC4CC[C@H](COc5c(c(C(F)F)nn5C)-c5cc(cc(C)n5)C(=O)/N=C/2N3)C4)CCN1C1CCN(c2cc(F)c([C@H]3CCC(=O)NC3=O)c(F)c2)CC1 [Example 85, (R)-3-(4-(4-((S)-4-((7^1R,7^3S,E)-1^3-(difluoromethyl)-1^1,2^6-dimethyl-3-oxo-5^2,5^3-dihydro-1^1H,5^1H-9-oxa-4-aza-5(2,1)-benzo[d]imidazola-2(2,4)-pyridina-1(4,5)-pyrazola-7(1,3)-cyclopentanacyclononaphane-5^6-yl)-2-(methoxymethyl)piperazin-1-yl)piperidin-1-yl)-2,6-difluorophenyl)piperidine-2,6-dione]
